Measured values published in patent publication US20100099561A1, “HETEROBICYCLIC ALKYLTHIO-BRIDGED ISOXAZOLINES” (E.I. DU PONT DE NEMOURS AND COMPANY, priority 2008, published 2010).

Assays:
Assay type in all cases: in vivo
[1] = test system: sunflower (common oilseed sunflower, Helianthus annuus); assay: Test B preemergence, sunflower; details: Preemergence, scale 0 to 100
Text: (§1) Seeds of plant species selected from blackgrass (Alopecurus myosuroides), downy bromegrass (Bromus tectorum), green foxtail (Setaria viridis), Italian ryegrass (Lolium multiflorum), wheat (Triticum aestivum), wild oat (Avena fatua), catchweed bedstraw (Galium aparine), bermudagrass (Cynodon dactylon), Surinam grass (Brachiaria decumbens), cocklebur (Xanthium strumarium), corn (Zea mays), large crabgrass (Digitaria sanguinalis), woolly cupgrass (Eriochloa villosa), giant foxtail (Setaria faberii), goosegrass (Eleusine indica), johnsongrass (Sorghum halepense), kochia (Kochia scoparia), lambsquarters (Chenopodium album), morningglory (Ipomoea coccinea), nightshade (eastern black nightshade, Solanum ptycanthum), yellow nutsedge (Cyperus esculentus), pigweed (Amaranthus retroflexus), ragweed (common ragweed, Ambrosia elatior), soybean (Glycine max), sunflower (common oilseed sunflower, Helianthus annuus), Russian thistle (Salsola kali), and velvetleaf (Abutilon theophrasti) were planted into a blend of loam soil and sand and treated preemergence with test compounds formulated in a non-phytotoxic solvent mixture which included a surfactant. Treated plants and controls were maintained in a greenhouse for 13 to 15 days, after which time all species were compared to controls and visually evaluated. Plant response ratings, summarized in Table B, are based on a scale of 0 to 100 where 0 is no effect and 100 is complete control. A dash (-) response means no test result.

[2] = test system: canarygrass (Phalaris minor); assay: Test C preemergence, canarygrass; details: 125 g ai/ha, 21 days, scale 0 to 100
Text: (§2) Seeds of plant species selected from annual bluegrass (Poa annua), blackgrass (Alopecurus myosuroides), canarygrass (Phalaris minor), gallium, (catchweed bedstraw, Galium aparine), chickweed (Stellaria media), downy bromegrass (Bromus tectorum), field poppy (Papaver rhoeas), field violet (Viola arvensis), green foxtail (Setaria viridis), deadnettle (henbit deadnettle, Lamium amplexicaule), Italian ryegrass (Lolium multiflorum), kochia (Kochia scoparia), lambsquarters (Chenopodium album), oilseed rape (Brassica napus), pigweed (Amaranthus retroflexus), Russian thistle (Salsola kali), spring barley (Hordeum vulgare), spring wheat (Triticum aestivum), wild buckwheat (Polygonum convolvulus), wild mustard (Sinapis arvensis), wild oat (Avena fatua), wild radish (Raphanus raphanistrum), windgrass (Apera spica-venti), winter barley (Hordeum vulgare), and winter wheat (Triticum aestivum) were planted and treated preemergence with test chemicals formulated in a non-phytotoxic solvent mixture which included a surfactant.
(§3) Treated plants and controls were maintained in a controlled growth environment for 21 days after which time all species were compared to controls and visually evaluated. Plant response ratings, summarized in Table C, are based on a scale of 0 to 100 where 0 is no effect and 100 is complete control. A dash (-) response means no test result.

[3] = test system: pigweed (Amaranthus retroflexus); assay: Test C preemergence, pigweed; details: 21 days, scale 0 to 100
Text: as §2, §3

[4] = test system: downy bromegrass (Bromus tectorum); assay: Test B preemergence, downy bromegrass; details: scale 0 to 100
Text: as §1

[5] = test system: winter wheat (Triticum aestivum); assay: Test C preemergence, winter wheat; details: 21 days, scale 0 to 100
Text: as §2, §3

[6] = test system: johnsongrass (Sorghum halepense); assay: Test B preemergence, johnsongrass; details: scale 0 to 100
Text: as §1

[7] = test system: field poppy (Papaver rhoeas); assay: Test C preemergence, field poppy; details: 21 days, scale 0 to 100
Text: as §2, §3

[8] = test system: wild mustard (Sinapis arvensis); assay: Test C preemergence, wild mustard; details: 21 days, scale 0 to 100
Text: as §2, §3

[9] = test system: green foxtail (Setaria viridis); assay: Test C preemergence, green foxtail; details: 125 g ai/ha, 21 days, scale 0 to 100
Text: as §2, §3

[10] = test system: blackgrass (Alopecurus myosuroides); assay: Test C preemergence, blackgrass; details: 125 g ai/ha, 21 days, scale 0 to 100
Text: as §2, §3

[11] = test system: morningglory (Ipomoea spp.); assay: Test A postemergence, morningglory; details: 0 to 100 scale (0 no effect, 100 complete control)
Outline: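 Pre: directed soil spray after sowing in loam/sand. Post: seedlings at 1–2 leaf stage, 2–10 cm. Vehicle: non-phytotoxic solvent mix + surfactant. Greenhouse ~10 d; visual injury 0–100 vs untreated controls.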

[12] = test system: pigweed (Amaranthus retroflexus); assay: Test B preemergence, pigweed; details: scale 0 to 100
Text: as §1

[13] = test system: chickweed (Stellaria media); assay: Test C preemergence, chickweed; details: 21 days, scale 0 to 100
Text: as §2, §3

[14] = test system: large crabgrass (Digitaria sanguinalis); assay: Test B preemergence, large crabgrass; details: scale 0 to 100
Text: as §1

[15] = test system: Russian thistle (Salsola kali); assay: Test B preemergence, Russian thistle; details: scale 0 to 100
Text: as §1

kochia (Kochia scoparia) = assay: Test B preemergence, kochia; details: scale 0 to 100
Text: as §1

CC1(C)CC(S(=O)(=O)Cc2c(C(F)(F)F)nc3n(c2=O)CCS3)=NO1 [Compound 6]
50: Plant response rating, Bromegrass, Downy ([4]; 125 g ai/ha) | Plant response rating, Field Poppy ([7]; 62 g ai/ha) | Plant response rating, Morningglory ([11]; 500 g ai/ha) | Plant response rating, Pigweed ([12]; 31 g ai/ha) | Plant response rating, Chickweed ([13]; 250 g ai/ha)
70: Plant response rating, Johnsongrass ([6]; 31 g ai/ha)
95: Plant response rating, Crabgrass, Large ([14]; 16 g ai/ha)
20: Plant response rating, Bromegrass, Downy ([4]; 31 g ai/ha) | Plant response rating, Bromegrass, Downy ([4]; 62 g ai/ha) | Plant response rating, Wheat, Winter ([5]; 250 g ai/ha) | Plant response rating, Foxtail, Green [9]
40: Plant response rating, Field Poppy ([7]; 31 g ai/ha) | Plant response rating, Morningglory ([11]; 125 g ai/ha)
45: Plant response rating, Johnsongrass ([6]; 16 g ai/ha)
90: Plant response rating, Field Poppy ([7]; 125 g ai/ha)
98: Plant response rating, Johnsongrass ([6]; 62 g ai/ha) | Plant response rating, Blackgrass [10]
0: Plant response rating, Sunflower ([1]; 16 g ai/ha) | Plant response rating, Sunflower ([1]; 31 g ai/ha) | Plant response rating, Sunflower ([1]; 62 g ai/ha) | Plant response rating, Sunflower ([1]; 125 g ai/ha) | Plant response rating, Pigweed ([3]; 31 g ai/ha) | Plant response rating, Pigweed ([3]; 62 g ai/ha) | Plant response rating, Pigweed ([3]; 125 g ai/ha) | Plant response rating, Bromegrass, Downy ([4]; 16 g ai/ha) | Plant response rating, Wheat, Winter ([5]; 31 g ai/ha) | Plant response rating, Wheat, Winter ([5]; 62 g ai/ha) | Plant response rating, Wheat, Winter ([5]; 125 g ai/ha) | Plant response rating, Mustard, Wild ([8]; 31 g ai/ha) | Plant response rating, Mustard, Wild ([8]; 62 g ai/ha) | Plant response rating, Mustard, Wild ([8]; 125 g ai/ha) | Plant response rating, Mustard, Wild ([8]; 250 g ai/ha) | Plant response rating, Pigweed ([12]; 16 g ai/ha) | Plant response rating, Chickweed ([13]; 31 g ai/ha) | Plant response rating, Chickweed ([13]; 62 g ai/ha) | Plant response rating, Chickweed ([13]; 125 g ai/ha)
100: Plant response rating, Pigweed ([3]; 250 g ai/ha) | Plant response rating, Johnsongrass ([6]; 125 g ai/ha) | Plant response rating, Field Poppy ([7]; 250 g ai/ha) | Plant response rating, Pigweed ([12]; 62 g ai/ha) | Plant response rating, Pigweed ([12]; 125 g ai/ha) | Plant response rating, Crabgrass, Large ([14]; 31 g ai/ha) | Plant response rating, Crabgrass, Large ([14]; 62 g ai/ha) | Plant response rating, Crabgrass, Large ([14]; 125 g ai/ha)
35: Plant response rating, Canarygrass [2]

CC1(C)CC(S(=O)(=O)Cc2c(C(F)(F)C(F)(F)F)nc3n(c2=O)CCC3)=NO1 [Compound 22]
85: Plant response rating, Crabgrass, Large ([14]; 16 g ai/ha)
90: Plant response rating, Crabgrass, Large ([14]; 31 g ai/ha)
10: Plant response rating, Johnsongrass ([6]; 31 g ai/ha)
70: Plant response rating, Kochia (kochia (Kochia scoparia); 125 g ai/ha)
60: Plant response rating, Bromegrass, Downy ([4]; 125 g ai/ha) | Plant response rating, Russian Thistle ([15]; 125 g ai/ha)
98: Plant response rating, Johnsongrass ([6]; 125 g ai/ha) | Plant response rating, Crabgrass, Large ([14]; 62 g ai/ha)
100: Plant response rating, Pigweed ([12]; 125 g ai/ha) | Plant response rating, Crabgrass, Large ([14]; 125 g ai/ha)
65: Plant response rating, Johnsongrass ([6]; 62 g ai/ha)
0: Plant response rating, Sunflower ([1]; 16 g ai/ha) | Plant response rating, Sunflower ([1]; 31 g ai/ha) | Plant response rating, Sunflower ([1]; 62 g ai/ha) | Plant response rating, Bromegrass, Downy ([4]; 16 g ai/ha) | Plant response rating, Bromegrass, Downy ([4]; 31 g ai/ha) | Plant response rating, Bromegrass, Downy ([4]; 62 g ai/ha) | Plant response rating, Johnsongrass ([6]; 16 g ai/ha) | Plant response rating, Russian Thistle ([15]; 31 g ai/ha) | Plant response rating, Morningglory ([11]; 125 g ai/ha) | Plant response rating, Pigweed ([12]; 31 g ai/ha) | Plant response rating, Kochia (kochia (Kochia scoparia); 16 g ai/ha) | Plant response rating, Kochia (kochia (Kochia scoparia); 31 g ai/ha) | Plant response rating, Kochia (kochia (Kochia scoparia); 62 g ai/ha)
30: Plant response rating, Russian Thistle ([15]; 62 g ai/ha)
50: Plant response rating, Sunflower ([1]; 125 g ai/ha) | Plant response rating, Morningglory ([11]; 500 g ai/ha)
